Experimental data from doi:10.1101/2025.01.30.635627v1 (biorxiv, 2025).

What was measured:
EEF1A2 = target: T1, EEF1A2 (Homo sapiens, UniProt Q05639); test: decryptC competitive reactive cysteine profiling in intact cells, LC-MS/MS; format: cell-based; settings: covalent; C31; […] h incubation; range over MiaPaCa-2, NCI-H23 and ASPC1 cells
T1 sequence (Q05639 2-463): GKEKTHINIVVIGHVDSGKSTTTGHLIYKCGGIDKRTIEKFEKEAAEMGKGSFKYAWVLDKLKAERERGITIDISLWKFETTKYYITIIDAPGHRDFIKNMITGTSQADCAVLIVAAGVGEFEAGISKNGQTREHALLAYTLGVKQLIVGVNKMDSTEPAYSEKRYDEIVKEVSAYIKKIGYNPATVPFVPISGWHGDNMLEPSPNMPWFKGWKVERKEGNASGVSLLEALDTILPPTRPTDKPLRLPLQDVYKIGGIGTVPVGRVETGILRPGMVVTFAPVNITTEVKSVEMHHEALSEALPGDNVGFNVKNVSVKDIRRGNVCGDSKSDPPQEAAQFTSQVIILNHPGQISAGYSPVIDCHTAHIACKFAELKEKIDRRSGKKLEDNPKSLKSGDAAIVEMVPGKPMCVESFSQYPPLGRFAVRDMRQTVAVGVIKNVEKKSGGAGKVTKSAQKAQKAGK

GAK = target: T2, GAK (Homo sapiens, UniProt O14976); test: Kinobead selectivity profiling; format: biochemical; settings: read-out: K ^app; apparent value; off-target of ERK inhibitor
T2 sequence (O14976 2-1311): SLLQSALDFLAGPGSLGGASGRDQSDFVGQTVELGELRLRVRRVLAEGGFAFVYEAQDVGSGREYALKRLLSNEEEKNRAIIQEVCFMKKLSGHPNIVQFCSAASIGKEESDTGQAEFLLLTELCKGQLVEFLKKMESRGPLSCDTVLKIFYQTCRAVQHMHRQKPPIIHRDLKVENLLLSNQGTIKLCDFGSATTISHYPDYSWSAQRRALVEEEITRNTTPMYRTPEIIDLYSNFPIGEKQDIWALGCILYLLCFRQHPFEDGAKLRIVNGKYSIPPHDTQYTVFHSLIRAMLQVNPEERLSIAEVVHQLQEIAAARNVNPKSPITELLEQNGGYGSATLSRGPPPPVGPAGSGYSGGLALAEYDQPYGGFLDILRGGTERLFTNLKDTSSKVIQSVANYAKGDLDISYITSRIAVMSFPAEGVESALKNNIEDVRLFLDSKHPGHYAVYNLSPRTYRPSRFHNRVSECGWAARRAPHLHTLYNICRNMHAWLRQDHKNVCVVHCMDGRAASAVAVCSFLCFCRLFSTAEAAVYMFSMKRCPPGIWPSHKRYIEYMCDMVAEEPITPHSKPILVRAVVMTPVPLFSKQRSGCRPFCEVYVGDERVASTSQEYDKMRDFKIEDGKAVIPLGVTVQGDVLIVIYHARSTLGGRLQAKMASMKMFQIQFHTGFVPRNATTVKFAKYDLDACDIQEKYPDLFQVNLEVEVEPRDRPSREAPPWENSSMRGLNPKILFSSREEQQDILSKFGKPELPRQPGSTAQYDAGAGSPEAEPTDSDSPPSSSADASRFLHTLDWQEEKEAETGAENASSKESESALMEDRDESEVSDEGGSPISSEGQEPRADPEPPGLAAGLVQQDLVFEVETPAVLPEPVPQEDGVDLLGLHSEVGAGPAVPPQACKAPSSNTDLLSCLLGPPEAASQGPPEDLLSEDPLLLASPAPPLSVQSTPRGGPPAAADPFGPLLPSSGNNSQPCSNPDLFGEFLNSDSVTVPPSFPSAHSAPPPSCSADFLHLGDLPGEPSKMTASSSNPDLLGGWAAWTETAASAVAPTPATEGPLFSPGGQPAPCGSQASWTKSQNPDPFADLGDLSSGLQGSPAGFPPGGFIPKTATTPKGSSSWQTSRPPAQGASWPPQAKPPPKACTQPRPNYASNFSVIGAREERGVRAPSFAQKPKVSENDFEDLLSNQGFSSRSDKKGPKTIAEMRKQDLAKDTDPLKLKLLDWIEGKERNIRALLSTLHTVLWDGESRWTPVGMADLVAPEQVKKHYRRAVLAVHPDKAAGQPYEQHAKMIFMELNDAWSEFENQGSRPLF

AAK1 = AAK1 (Homo sapiens, UniProt Q2M2I8); test: Kinobead selectivity profiling; format: biochemical; settings: read-out: K ^app; apparent value; off-target of ERK inhibitor
AAK1, sequence (Q2M2I8 whole entry): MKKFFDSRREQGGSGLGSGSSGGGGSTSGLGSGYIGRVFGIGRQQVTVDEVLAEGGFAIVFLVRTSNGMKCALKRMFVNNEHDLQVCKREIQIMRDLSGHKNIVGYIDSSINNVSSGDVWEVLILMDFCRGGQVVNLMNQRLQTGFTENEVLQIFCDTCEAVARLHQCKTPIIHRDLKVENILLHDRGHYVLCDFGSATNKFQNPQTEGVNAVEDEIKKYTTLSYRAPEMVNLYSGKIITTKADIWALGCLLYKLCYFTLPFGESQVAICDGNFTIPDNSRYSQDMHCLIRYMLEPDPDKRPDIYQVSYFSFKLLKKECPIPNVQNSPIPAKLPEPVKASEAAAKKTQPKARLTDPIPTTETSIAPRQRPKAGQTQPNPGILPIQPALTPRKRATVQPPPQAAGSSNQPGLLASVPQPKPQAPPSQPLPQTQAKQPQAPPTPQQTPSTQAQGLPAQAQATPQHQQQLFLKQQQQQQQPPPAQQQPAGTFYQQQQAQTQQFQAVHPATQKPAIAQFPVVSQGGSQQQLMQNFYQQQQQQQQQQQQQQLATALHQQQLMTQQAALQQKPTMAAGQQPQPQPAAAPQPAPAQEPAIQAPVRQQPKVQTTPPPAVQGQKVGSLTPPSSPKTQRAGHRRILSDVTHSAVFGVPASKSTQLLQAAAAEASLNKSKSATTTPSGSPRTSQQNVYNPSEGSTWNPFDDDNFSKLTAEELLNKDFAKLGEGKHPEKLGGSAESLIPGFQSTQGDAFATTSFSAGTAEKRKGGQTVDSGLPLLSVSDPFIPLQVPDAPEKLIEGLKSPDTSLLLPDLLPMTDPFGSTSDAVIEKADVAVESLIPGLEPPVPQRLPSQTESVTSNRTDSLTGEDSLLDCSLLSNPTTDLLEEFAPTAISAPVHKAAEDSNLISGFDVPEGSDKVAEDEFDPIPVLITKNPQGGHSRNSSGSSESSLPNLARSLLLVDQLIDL

EC50 (EEF1A2)	Kd (GAK)	Kd (AAK1)	SMILES
1000 to 3000 nM			C=C(F)C(=O)N1CCN(c2nc(OC[C@@H]3CCCN3C)nc3c2CCN(c2cccc4cccc(Cl)c24)C3)C[C@@H]1CC#N [Adagrasib]
	155 nM	11 nM	Cn1nccc1Nc1nccc(-c2cc3c(s2)C(C)(C)N(CCN2CCOCC2)C3=O)n1 [Temuterkib]
